Assay: Human HepG2 cell viability assay in 384 well format
Format: toxicity, cell-based
Set-up: dose 125 nL, time 70.5 hour; cytotoxicity at 70.5 h: concentration not given beside the values
Conditions: HepG2 cells, read-out: Inhibition

Q: With `C[C@@H]1CN(Cc2nc(Cc3ccccc3F)no2)C[C@H](C)O1` as the compound, how does the cytotoxicity at 70.5 h read?
A: 32.5%

Q: With `Cc1ccc(OCC2CCCN(C(=O)CN3CCOCC3)C2)cc1` (configuration not stated) as the compound, how does the cytotoxicity at 70.5 h read?
A: 2.89%

Q: With `CNc1ncc(CN(C)C(=O)c2cccc(Cn3cccn3)c2)cn1` as the compound, how does the cytotoxicity at 70.5 h read?
A: -6.97%

Q: Which cytotoxicity at 70.5 h does the source give for `COc1cc(N2CCC(c3nccn3Cc3cccnc3)CC2)ncn1` here?
A: -5.38%

Q: For `Cc1ccc(-c2nccn2-c2ccc(OC3CCN(C)CC3)cc2)o1`, which cytotoxicity at 70.5 h is on record?
A: 17%

Q: With `CCCC(Nc1nc(COCC)nc2c1CCNCC2)c1nccn1C` (configuration not stated) as the compound, how does the cytotoxicity at 70.5 h read?
A: 2.1%

Q: With `COc1ccc(-n2nc(C3CC3)nc2CCn2cnnn2)cc1` as the compound, how does the cytotoxicity at 70.5 h read?
A: 26.8%

Q: For `O=C(CCOc1ccccc1)N1CCCC(c2ncc[nH]2)C1` (configuration not stated), which cytotoxicity at 70.5 h is on record?
A: -20.2%

Q: With `Cn1ccnc1CN(CCO)C(=O)c1cnc2ccccc2c1` as the compound, how does the cytotoxicity at 70.5 h read?
A: 0.182%

Q: For `CC[C@@]1(O)CCN(C(=O)c2ccc(OC(F)F)cc2)C[C@H]1O`, which cytotoxicity at 70.5 h is on record?
A: -4.22%

Q: With `CC(=O)NCC1CCC2(CCN(c3nccc(C4CCCC4)n3)CC2)O1` (configuration not stated) as the compound, how does the cytotoxicity at 70.5 h read?
A: -7.84%

Q: Which cytotoxicity at 70.5 h does the source give for `CCN(Cc1cnn(CC)c1)C(=O)Cn1c(=O)ccc2ccccc21` here?
A: -5.92%

Q: For `O=C1CC2(CCN(C(=O)c3ccc4c(c3)CCCO4)C2)C(=O)N1` (configuration not stated), which cytotoxicity at 70.5 h is on record?
A: 2.37%

Q: Which cytotoxicity at 70.5 h does the source give for `Cc1cc(C)c2nc(CN3CCC(N4CCOCC4)CC3)cc(O)c2c1` here?
A: -0.693%

Q: Which cytotoxicity at 70.5 h does the source give for `NC(=O)c1csc(N2C[C@@H](CN3CCOCC3)[C@@H](CO)C2)n1` here?
A: -2.9%

Q: With `O=C(CCNc1ncc2c(n1)CCN2c1ccccc1)N1CCCC1` as the compound, how does the cytotoxicity at 70.5 h read?
A: -9.59%

Q: With `O=C(NCc1nc(C2CCCCC2)no1)C1CC(=O)N(C2CCCC2)C1` (configuration not stated) as the compound, how does the cytotoxicity at 70.5 h read?
A: -0.128%

Q: With `COc1ccccc1Oc1ncccc1CNC(=O)C1(C)CCCNC1` (configuration not stated) as the compound, how does the cytotoxicity at 70.5 h read?
A: -1.4%

Q: With `CCc1ccccc1OC1CN(CC2CCOC2)C1` (configuration not stated) as the compound, how does the cytotoxicity at 70.5 h read?
A: 29.4%

Q: Which cytotoxicity at 70.5 h does the source give for `CCOCc1nc2c(c(NCc3cc(C)on3)n1)CCN(C(C)=O)CC2` here?
A: -7.96%

Q: For `CSc1cccc(CNC(=O)[C@H]2CNC[C@H](C(=O)N3CCOCC3)C2)c1`, which cytotoxicity at 70.5 h is on record?
A: -2.2%

Q: Which cytotoxicity at 70.5 h does the source give for `COCCOC(=O)N1C[C@H]2CC[C@@H]1CN(C1Cc3ccccc3C1)C2` here?
A: -3.17%

Q: For `Fc1cccc(C2(CNC3CCCNC3)CCOCC2)c1` (configuration not stated), which cytotoxicity at 70.5 h is on record?
A: -1.46%

Q: Which cytotoxicity at 70.5 h does the source give for `CS(=O)(=O)N1CCCCC1CCc1ccc(O)cc1` (configuration not stated) here?
A: 16.6%

Q: Which cytotoxicity at 70.5 h does the source give for `C[C@@H]1CN(CC(C)(C)N2CCOCC2)C[C@@]1(O)C1CC1` here?
A: -6.35%

Q: With `CC(C1CCN(Cc2ccc(OC(F)F)cc2)CC1)N1CCOCC1` (configuration not stated) as the compound, how does the cytotoxicity at 70.5 h read?
A: -17.4%

Q: For `COc1ccc(NC(=O)N2CCC3(CC2)NC(=O)CC3C(=O)O)c(C)c1` (configuration not stated), which cytotoxicity at 70.5 h is on record?
A: -1.09%

Q: Which cytotoxicity at 70.5 h does the source give for `Cc1ccsc1-c1nccn1CCN1CCCCC1CO` (configuration not stated) here?
A: -4.24%

Q: Which cytotoxicity at 70.5 h does the source give for `COc1cccc2ccc(N3CCC(O)(C(=O)O)CC3)nc12` here?
A: -16.9%

Q: With `Cc1nc(-c2ccncc2)ncc1C(C)NC(=O)CN1CCCCC1` (configuration not stated) as the compound, how does the cytotoxicity at 70.5 h read?
A: -7.41%

Q: Which cytotoxicity at 70.5 h does the source give for `CCCNC(=O)N1CCc2ccc(S(=O)(=O)N3CCOCC3)cc2C1` here?
A: -16.2%

Q: Which cytotoxicity at 70.5 h does the source give for `Cn1ncc(CN2CCc3onc(-c4cccc(F)c4)c3C2)c1C1CC1` here?
A: -11.6%

Q: Which cytotoxicity at 70.5 h does the source give for `CCCn1cnnc1CNC(=O)C1COc2c(cccc2OC)C1` (configuration not stated) here?
A: -11.4%

Q: For `COc1cc(-c2nc3c([nH]2)CCCNC3=O)cc(OC)c1OC`, which cytotoxicity at 70.5 h is on record?
A: -1.49%

Q: For `Cc1nc(NC(=O)NC2CC(=O)N(C)C2)nn1C` (configuration not stated), which cytotoxicity at 70.5 h is on record?
A: 7.5%

Q: Which cytotoxicity at 70.5 h does the source give for `C[C@@H]1CN(C(=O)CCCN2CCCC2)CC[C@@]1(O)C1CCOCC1` here?
A: -3.8%

Q: Which cytotoxicity at 70.5 h does the source give for `CC(C)CN(Cc1ccc(O)c(C(=O)O)c1)Cc1cnn(C)c1` here?
A: -1.34%

Q: For `CN(Cc1nncn1-c1cccc(C(F)(F)F)c1)S(C)(=O)=O`, which cytotoxicity at 70.5 h is on record?
A: 7.25%

Q: For `CC(=O)NCCCC(=O)N1CCC(Sc2cccc(C)c2)CC1`, which cytotoxicity at 70.5 h is on record?
A: -12.1%

Q: With `O=S1(=O)C[C@@H]2[C@H](C1)N(Cc1ccc3ccccc3c1)CCN2CC1CC1` as the compound, how does the cytotoxicity at 70.5 h read?
A: 2.29%

Q: For `Cc1nc(NCCC23CCCN2CCC3)cc(C2CCCNC2)n1` (configuration not stated), which cytotoxicity at 70.5 h is on record?
A: -3.41%

Q: With `CC(=O)N(C)c1nc(CN2CCCC2Cn2cncn2)cs1` (configuration not stated) as the compound, how does the cytotoxicity at 70.5 h read?
A: -2.86%

Q: Which cytotoxicity at 70.5 h does the source give for `CCc1nccn1C1CCCN(C(=O)c2ccc3nnc(C)n3c2)C1` (configuration not stated) here?
A: -2.12%

Q: Which cytotoxicity at 70.5 h does the source give for `CN1CCN(C2CCN(Cc3nc(-c4ccoc4)no3)CC2)C1=O` here?
A: -6.16%

Q: With `Cc1ccc(CC(=O)Nc2cc(C(C)C)n[nH]2)cn1` as the compound, how does the cytotoxicity at 70.5 h read?
A: 24.6%

Q: For `COc1ccc(-c2noc(CN3CC(n4cc(C)cn4)C3)n2)cc1`, which cytotoxicity at 70.5 h is on record?
A: -11.2%

Q: For `O=C1NCCN1C1CCN(Cc2nc(-c3ccsc3)no2)CC1`, which cytotoxicity at 70.5 h is on record?
A: 32.4%

Q: Which cytotoxicity at 70.5 h does the source give for `CC(C)C(Sc1nccn1C1CC1)C(=O)NCc1cccnc1` (configuration not stated) here?
A: 16%

Q: For `Cc1ccc(C(C)NC(=O)CNCCn2cccn2)cc1C` (configuration not stated), which cytotoxicity at 70.5 h is on record?
A: -10.7%

Q: For `CCCc1nc(CN2CCCCC2Cn2cncn2)cs1` (configuration not stated), which cytotoxicity at 70.5 h is on record?
A: -7.91%

Q: For `CC(C)C(Sc1nncn1C1CC1)C(=O)NCc1cccnc1` (configuration not stated), which cytotoxicity at 70.5 h is on record?
A: -2.46%

Q: With `CCc1nccn1C1CCCN(C(=O)c2ccc3c(c2)OCCO3)C1` (configuration not stated) as the compound, how does the cytotoxicity at 70.5 h read?
A: -9.17%

Q: Which cytotoxicity at 70.5 h does the source give for `CCc1nccn1C1CCCN(C(=O)c2ccc(OC)c(OC)c2)C1` (configuration not stated) here?
A: 9.92%

Q: Which cytotoxicity at 70.5 h does the source give for `Cc1cc(C(=O)N2CCCC(C)C2)ccc1NCc1nc(C2CC2)no1` (configuration not stated) here?
A: -13.1%

Q: For `Cc1nc(C)n(CC2CCCN2Cc2ncc(-c3ccccc3)o2)n1` (configuration not stated), which cytotoxicity at 70.5 h is on record?
A: -2.3%

Q: With `CC(C)c1nc(CN(C)C2CCCN(c3cccnn3)C2)no1` (configuration not stated) as the compound, how does the cytotoxicity at 70.5 h read?
A: -5.62%

Q: Which cytotoxicity at 70.5 h does the source give for `CCOCCN1CCN(Cc2coc(-c3cccc(F)c3)n2)CC1` here?
A: -1.54%

Q: Which cytotoxicity at 70.5 h does the source give for `Cc1nn(C)c(N(C)C)c1CNCC(O)c1ccccc1F` (configuration not stated) here?
A: -15.4%

Q: With `O=C(NCC1CCOC1)c1csc(-c2ccccc2)n1` (configuration not stated) as the compound, how does the cytotoxicity at 70.5 h read?
A: -15.4%

Q: Which cytotoxicity at 70.5 h does the source give for `Cc1cc(CNC(=O)CCc2c(C)nc3cc(O)nn3c2C)no1` here?
A: -6.68%

Q: With `Cc1nc2cc(O)nn2c(C)c1CCC(=O)NCCc1nccn1C` as the compound, how does the cytotoxicity at 70.5 h read?
A: -10.9%

Q: Which cytotoxicity at 70.5 h does the source give for `CC(C)Cc1cc(NC(=O)c2ccccc2F)n(C)n1` here?
A: -9.5%

Q: With `CCOc1ccc(Cl)c(C(=O)N2CCCN(CC(N)=O)CC2)n1` as the compound, how does the cytotoxicity at 70.5 h read?
A: -12%

Q: Which cytotoxicity at 70.5 h does the source give for `Cc1cnn(C2CCCN(C(=O)c3ccc4c(c3)CCC4)C2)c1` (configuration not stated) here?
A: -6.05%

Q: Which cytotoxicity at 70.5 h does the source give for `Cc1cnn(C2CCCN(C(=O)c3ccc(O)nc3)C2)c1` (configuration not stated) here?
A: -12.4%

Q: For `COC(=O)c1cccn1C1CCN(C(=O)c2ccc(C)[nH]c2=O)CC1`, which cytotoxicity at 70.5 h is on record?
A: -5.32%

Q: With `COC(=O)c1cccn1C1CCN(C(=O)c2cc(F)ccc2C)CC1` as the compound, how does the cytotoxicity at 70.5 h read?
A: -16.9%

Q: For `CCOc1ccc(Cl)c(C(=O)N2CCN(CC(O)CC)CC2)n1` (configuration not stated), which cytotoxicity at 70.5 h is on record?
A: -14%

Q: Which cytotoxicity at 70.5 h does the source give for `O=C(c1ccc2[nH]c(=O)[nH]c2c1)N1CCC(Nc2cccnn2)CC1` here?
A: -9.22%

Q: With `Cn1nnc2cc(C(=O)N3CCC(Nc4cccnn4)CC3)ccc21` as the compound, how does the cytotoxicity at 70.5 h read?
A: -15.7%

Q: With `O=C(c1ccc(-n2cnnc2)cc1)N1CCC(Nc2cccnn2)CC1` as the compound, how does the cytotoxicity at 70.5 h read?
A: -15.6%

Q: For `CNC(=O)c1ccc(C(=O)N2CCCC(n3nc(C)cc3C)C2)cn1` (configuration not stated), which cytotoxicity at 70.5 h is on record?
A: -12.8%

Q: With `Cc1oc(C(=O)O)cc1S(=O)(=O)Nc1cccc(Cl)c1F` as the compound, how does the cytotoxicity at 70.5 h read?
A: -7.29%

Q: Which cytotoxicity at 70.5 h does the source give for `CCOc1ccc(Cl)c(C(=O)N2CCCSCC2)n1` here?
A: -10.6%

Q: For `COCCN1CCC(NCc2ccc(F)cc2F)C1` (configuration not stated), which cytotoxicity at 70.5 h is on record?
A: 5.5%

Q: With `COCCN1CCC(NCc2cccc(C)c2)C1` (configuration not stated) as the compound, how does the cytotoxicity at 70.5 h read?
A: -12.6%

Q: For `COc1c(C)cnc(CN2CCC(N(C)C(=O)C3CC3)CC2)c1C`, which cytotoxicity at 70.5 h is on record?
A: -10.5%

Q: With `CCc1noc(CN2CCN(Cc3cccs3)CC2)n1` as the compound, how does the cytotoxicity at 70.5 h read?
A: -10%

Q: With `Cc1nn(C)c(C)c1C1COCCN1C(=O)c1cc(F)ccc1F` (configuration not stated) as the compound, how does the cytotoxicity at 70.5 h read?
A: -16.4%

Q: With `Cc1cc(C(=O)N2CCCC2)ccc1NCC(=O)N1CCOCC1` as the compound, how does the cytotoxicity at 70.5 h read?
A: -6.05%

Q: With `COc1c(C)cnc(CN2CCC(N(C)S(C)(=O)=O)CC2)c1C` as the compound, how does the cytotoxicity at 70.5 h read?
A: -16%

Q: Which cytotoxicity at 70.5 h does the source give for `CCNC(=O)N(C)C1CCN(Cc2ncc(C)c(OC)c2C)CC1` here?
A: -8%
